Laboratory results reported in publication PMC9354082, “5-HT3 Receptor MX Helix Contributes to Receptor Function” (ACS Chemical Neuroscience, 2022).
Where a chain is given by its changes, count along the chain named.

Columns and labels:
Experiment in all cases: Radioligand binding, transfected HEK293 cell membranes
Details in all cases: HEK cell membranes, n=4
[1] = target: T1, H323A mutant 5-HT3 receptor (Mus musculus, UniProt P23979, H350A)
T1 construct: expressed in transfected cells; host or cells: HEK293 cells (membranes)
T1 sequence (P23979 24-489 H350A): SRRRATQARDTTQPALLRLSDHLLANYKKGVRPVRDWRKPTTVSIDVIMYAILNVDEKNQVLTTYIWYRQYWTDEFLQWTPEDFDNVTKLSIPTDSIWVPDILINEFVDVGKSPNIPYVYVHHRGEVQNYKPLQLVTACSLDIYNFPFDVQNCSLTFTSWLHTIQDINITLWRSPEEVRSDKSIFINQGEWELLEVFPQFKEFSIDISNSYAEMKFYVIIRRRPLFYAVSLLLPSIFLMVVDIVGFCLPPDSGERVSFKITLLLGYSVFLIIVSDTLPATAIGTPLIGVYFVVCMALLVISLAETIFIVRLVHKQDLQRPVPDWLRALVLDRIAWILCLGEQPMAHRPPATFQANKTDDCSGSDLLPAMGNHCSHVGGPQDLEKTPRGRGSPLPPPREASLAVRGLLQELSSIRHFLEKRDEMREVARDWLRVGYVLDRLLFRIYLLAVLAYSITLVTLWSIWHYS
Protocol: (§1) One method to explore this is to perform radiolabeled ligand binding to examine the parameters associated with the binding site.
(§2) This was undertaken as previously described.[23] Briefly, transfected HEK293 cell membranes were incubated in 0.5 ml of HEPES buffer containing the 5-HT3 receptor antagonist [^3H]GR65630 to label cell surface receptors. Nonspecific binding was determined using 1 μM quipazine. Data were analyzed by iterative curve fitting using Prism. Values are presented as mean ± SEM.

[2] = target: T2, P318A mutant 5-HT3 receptor (Mus musculus, UniProt P23979, P345A)
T2 construct: expressed in transfected cells; host or cells: HEK293 cells (membranes)
T2 sequence (P23979 24-489 P345A): T1 sequence (P23979 24-489 H350A) with P322A, A327H
Protocol: as §1, §2

[3] = target: T3, WT 5-HT3 receptor (Mus musculus, UniProt P23979)
T3 construct: expressed in transfected cells; host or cells: HEK293 cells (membranes)
T3 sequence (P23979 24-489): T1 sequence (P23979 24-489 H350A) with A327H
Protocol: as §1, §2

Cc1[nH]cnc1CCC(=O)c1cn(C)c2ccccc12 [[^3H]GR65630]
Bmax [1]: 1.0 ± 0.1 pmol/mg protein | Bmax [2]: 0.9 ± 0.2 pmol/mg protein | Bmax [3]: 1.1 ± 0.4 pmol/mg protein | Kd [3]: 0.25 ± 0.1 nM
